# Source: US8193224B2, “Medicinal composition for prevention or treatment of parasitic protozoan infection” (Fujifilm Corporation, priority 2004, dated 2012)
# Read-outs that look alike come from different tables or passages of the source.
# Assays:
# Assay type in all cases: cell-based
# [1] = system: Rat derived-L6 cells (rat skeletal myoblast cell); experiment: Growth inhibition test of rat L6 cells; details: 72 hours
# Procedure: (§1) Rat derived-L6 cells (rat skeletal myoblast cell) were used. As medium, RPMI1640 medium was supplemented so that L-glutamin (200 mM) is 1%, and fetal bovine serum 10%, and the medium was cultured under CO2 concentration 5%, at 37° C. The compounds of the present invention and the target drugs to be used in the test were dissolved in DMSO, to make a test solution of a predetermined concentration. Pre-culture was conducted and medium containing cells which have entered the logarithmic growth phase was taken to wells of a 96-well culture plate. Then, a test solution containing drug of a predetermined concentration or a drug-free DMSO was added. Test solutions were taken by duplicates. Culture plate was cultured for 72 hours in an incubator, to test the growth inhibition activity. Test was conducted as follows.
# (§2) 10 μl of Alamar Blue aqueous solution was added to each well, and the resultant was further cultured for 2 hours. Next, the culture plate was placed on a fluorescent micro-plate reader (Spectramax Gemeni XS; US Molecular Device), radiated at an excited wavelength of 536 nm. Fluorescent intensity was measured at 588 nm, and residual rate of L6 cells of the test solution added group, and that of the control was calculated. Based on the cell residual rate obtained in the above, growth inhibition rate to L6 cells was calculated, to obtain a 50% growth inhibition concentration (EC50). Growth inhibition rate (%)={(C−A)/(B−A)}×100 A: primary cell count B: cell count of control, 3 days after C: cell count of wells added with a sample, 3 days after […]
# [2] = system: Plasmodium falciparum K1 strain; experiment: Chloroquine resistant-Plasmodium falciparum growth inhibition screening test; details: for EC50: chloroquine resistant K1 strain, 3H-hypoxanthine, 48 + 24 hours, read-out: 50% growth inhibition concentration P. falciparum K1; for Selective toxicity: chemotherapy index = EC50 rat L6 cells / EC50 chloroquine resistant P. falciparum
# Procedure: In the present example, protozoa of Plasmodium falciparum K1 strain was used. RPMI-1640 medium sterilized with a filter to which human serum was added to be 5%, was used in the experiment. Malarial parasites were cultured under 3% O2 concentration, 4% Co2 concentration, 93% N2 concentration, and at a temperature of 37° C.
# The compounds of the present invention to be used in the present test and the positive target drug (chloroquine) were dissolved in DMSO to make a test solution of a predetermined concentration. Cultured malarial parasite infected-erythrocytes were collected by centrifugation, and diluted with non-infected erythrocyte so that the early infection rate is 0.15%. Hematocrit level at that time was 2.5%. 200 μL of malaria infected solution was added to wells of a 96-well culture plate, and adjusted by adding a test solution containing drug of a predetermined concentration or a drug-free DMSO. Test solutions were taken by duplicates. After culturing for 48 hours at 37° C., 0.5 μCi radioactive tritium (3H)-labeled hypoxanthine was added to each well. After further culturing for 24 hours under the same conditions, it was collected on a glass fiber filter and washed with distilled water. Radiation intensity was measured with a beta plate liquid scintillation counter (Wallac), and malarial parasite infection rates of the test solution added group and of the control group were calculated. Growth inhibition rate was calculated with the following formula based on the malarial parasite infection rate obtained in the above, to obtain a 50% growth inhibition concentration (EC50). Growth inhibition rate (%)={1−(b−a)/(c−a)}×100 a: early infection rate b: infection rate when test solution was added c: infection rate of the control
# [3] = system: Trypanosoma brucei rhodensiense (STIB 900 strain); experiment: African trypanosome protozoa growth inhibition screening test; details: read-out: 50% growth inhibiting concentration Trypanosoma brucei rhod.
# Procedure: In the present example, protozoa of Trypanosoma brucei rhodensiense (STIB 900 strain), a trypamastigote living in blood stream, was used. The medium used in the experiment was a MEM medium which was sterilized with a filter and supplemented with 25 mM N-2-hydroxyethylpiperazine-2-ethansulfonic acid […]), 1 g/L glucose, 1% MEM non-essential amino acid, 0.2 mM 2-mercaptoethanol, 2 mM sodium pyruvate, 0.1 mM hypoxanthine, and 15% heat-treated horse serum. The protozoa was cultured in an atmosphere of CO2 concentration 5%, at a temperature of 37° C.
# The compounds of the present invention to be used in the present test and the positive target drug (melarsoprol) were dissolved in DMSO to make a test solution of a predetermined concentration. A medium containing 8×10^3 protozoa, and a test solution containing a drug of a predetermined concentration or a drug-free DMSO were added to wells of a 96-well culture plate, and subsequently, medium was added so that the amount in each well becomes 100 μL. Test solutions were taken by duplicates. After culturing the culture plate for 72 hours in an incubator, growth inhibition activity was tested. Test was conducted as follows. 10 μL of Alamar Blue aqueous solution was added to each well, and the resultant was further cultured for 2 hours. Next, the culture plate was placed on a fluorescent micro-plate reader (Spectramax Gemeni XS; US Molecular Device), radiated at an excited wavelength of 536 nm. Fluorescent intensity was measured at 588 nm, to calculate the trypanosome protozoa infected rate of the test solution added-group, and of the control group. From the protozoan infection rate obtained in the above, growth inhibition rate was calculated with the following formula, to obtain a 50% growth inhibition concentration (EC50). Growth inhibition rate (%)={1−(b−a)/(c−a)}×100 a: early infection rate b: infection rate when test solution was added c: infection rate of the control
# [4] = Growth inhibition test of rat L6 cells
# Procedure: as §1, §2
# [5] = system: Trypanosoma brucei rhodensiense (STIB 900 strain); experiment: African trypanosome protozoa growth inhibition screening test; details: chemotherapy index = EC50 rat L6 cells / EC50 African trypanosome protozoa
# [6] = system: Leishmania donovani (MHOM/ET/67/L82 strain); experiment: Leishmania protozoa growth inhibition screening test; details: MHOM/ET/67/L82 strain amastigote, pH 5.4, 72 hours, Alamar Blue, read-out: 50% growth inhibition concentration Leishmania donovani
# Procedure: In the present example, Leishmania donovani (MHOM/ET/67/L82 strain) was used. Protozoa was subcultured in Syrian Golden hamster, from which an amastigote was obtained. In the experiment, SM medium supplemented with 10% heat-treated bovine fetal serum was used, which was adjusted to pH 5.4, and cultured in an atmosphere of 5% CO2 concentration, at 37° C.
# The compounds of the present invention to be used in the present test and the positive target drug (miltefosine) were dissolved in DMSO to make a test solution of a predetermined concentration. After adding a medium containing a predetermined number of protozoa to wells of a 96-well culture plate and pre-treating, concentration of the amastigote was measured with CASY cell analysis system (Scharfe, Germany). Then, test solution containing a drug of a predetermined concentration or a drug-free DMSO was added. Test solutions were taken by duplicates. After culturing the culture plate for 72 hours in an incubator, growth inhibition activity was tested. Test was conducted as follows.
# 10 μL of Alamar Blue aqueous solution was added to each well, and the resultant was further cultured for 2 hours. Next, the culture plate was placed on a fluorescent micro-plate reader (Spectramax Gemeni XS; US Molecular Device), radiated at an excited wavelength of 536 nm. Fluorescent intensity was measured at 588 nm, and infection rate of leishmania protozoa of the test solution added-group and control was calculated, to obtain a 50% growth inhibition concentration (EC50). Growth inhibition rate (%)={1−(b−a)/(c−a)}×100 a: early infection rate b: infection rate when test solution was added c: infection rate of the control
# [7] = system: Trypanosoma cruzi (Tulahuen C2C4 strain); experiment: American trypanosome protozoa growth inhibition screening test; details: Tulahuen C2C4 strain in rat L6 cells, 96 hours, CPRG/Nonidet, read-out: 50% growth inhibition concentration Trypanosoma cruzi
# Procedure: In the present example, amastigote and trypomastigote infected with rat L6 cells of protozoa of Trypanosoma cruzi (Tulahuen C2C4 strain) were used. As medium used in the test, RPMI 1640 medium containing L6 cells was supplemented so that L-glutamine (200 mM) becomes 1%, fetal bovine serum becomes 10%, which was cultured under CO2 concentration 5%, at 37° C.
# The compounds of the present invention to be used in the test and the positive target agent (benznidazole) were dissolved in DMSO to make a test solution of a predetermined concentration. A medium containing 5×10^3 protozoa was added to wells of a 96-well culture plate, and pre-cultured for 48 hours. After replacing the medium, test solution containing drug of a predetermined concentration or a drug-free DMSO was added. Test solutions were taken by duplicates. After culturing the culture plate in an incubator for 96 hours, growth inhibition activity was tested. Test was conducted as follows.
# 50 μL of CPRG/Nonidet was added to each well, and allowed to rest for 2 to 6 hours. Next, the culture plate was placed on a fluorescent micro-plate reader, and the absorbance was measured at 540 nm. Growth inhibition rate was calculated with the following formula based on the protozoan infection rate which was obtained by calculating trypanosome infection rate of the test solution added group and control group, to obtain a 50% growth inhibition concentration (EC50). Growth inhibition rate (%)={1−(b−a)/(c−a)}×100 a: early infection rate b: infection rate when test solution was added c: infection rate of the control
# [8] = Alamar Blue (Table 2), read-out: 50% growth inhibition concentration Cytotoxicity L6
# [9] = Alamar Blue (Table 3), read-out: 50% growth inhibiting concentration Cytotoxicity L6
# [10] = STIB 900 strain, blood stream form, 72 hours, Alamar Blue
# [11] = L6 cells (rat skeletal myoblast), Alamar Blue (Table 2), read-out: 50% growth inhibition concentration Cytotoxicity L6
# [12] = Trypanosoma brucei, STIB900, STIB 900 strain, blood stream form, 72 hours, Alamar Blue
SMILES,"EC50 [1, 8]","EC50 [1, 9]",EC50 [2],"EC50 [3, 10]",EC50 [6],other results
CCn1c(=Cc2cccc[n+]2C)sc(=CC=C2Sc3ccccc3N2C)c1=O [A-4],76 µM,76 µM,120 nM,410 nM,–,–
CCn1c(=O)/c(=C/C=C2\Sc3ccccc3N2C)s/c1=C\c1cccc[n+]1CCO [A-5],–,–,–,–,–,"EC50 at 72 h [4, 11]: 42 µM; EC50 ([2]; Plasmodium falciparum, 72 h): 270 nM; Selective toxicity [2]: 150"
CCn1c(=O)/c(=C/C=C2\Sc3ccccc3N2C)s/c1=C\c1cccc[n+]1CCOCCOCCOC [A-6],–,–,–,–,–,"EC50 at 72 h [4, 11]: 44 µM; EC50 ([2]; Plasmodium falciparum, 72 h): 190 nM; Selective toxicity [2]: 236; Selective toxicity [5]: 340; EC50 [3, 12]: 130 nM"
CCn1c(=Cc2oc3ccccc3[n+]2CC)sc(=CC=C2N(C)c3ccccc3C2(C)C)c1=O [A-8],1.8 µM,1.8 µM,14 nM,300 nM,56 nM,EC50 [7]: 990 nM
CCn1c(=Cc2sc3c4ccccc4ccc3[n+]2CC)sc(=CC=C2SCCN2C)c1=O [A-9],8.1 µM,8.1 µM,74 nM,140 nM,23 nM,EC50 [7]: 4100 nM
CCn1c(=O)/c(=C/C=C2\Sc3ccccc3N2C)s/c1=C\c1cccc[n+]1CCCCC(=O)O [A-12],–,–,–,–,–,"EC50 at 72 h [4, 11]: 17 µM; EC50 ([2]; Plasmodium falciparum, 72 h): 210 nM; Selective toxicity [2]: 84; Selective toxicity [5]: 19; EC50 [3, 12]: 900 nM"
C=CCn1c(=Cc2oc3ccccc3[n+]2C)sc(=CC=C2Sc3ccccc3N2C)c1=O [A-13],–,13 µM,–,110 nM,47 nM,"EC50 ([1]; Alamar Blue (Table 5), read-out: 50% growth inhibition concentration Cytotoxicity L6): 13 µM"
CCn1c(=Cc2cc[n+](CC)c3ccccc23)sc(=CC=C2C=Cc3ccccc3N2C)c1=O [A-14],9.1 µM,9.1 µM,140 nM,41 nM,200 nM,EC50 [7]: 1200 nM
"O=C(Cn1ccnc1[N+](=O)[O-])NCc1ccccc1 [benznidazol, benznidazole, reference compound]",–,–,–,–,–,EC50 ([7]; Trypanosoma cruzi): 870 nM
"Nc1nc(N)nc(Nc2ccc([As]3SCC(CO)S3)cc2)n1 (centres unmarked) [melarsoprol, reference compound]",–,–,–,–,–,"EC50 at 72 h [4, 9]: 7.8 µM; Selective toxicity [5]: 1300; EC50 ([3]; Trypanosoma brucei, STIB900, 72 h): 6 nM"
"CCCCCCCCCCCCCCCCOP(=O)([O-])OCC[N+](C)(C)C [miltefosine, reference compound]",–,–,–,–,–,EC50 ([6]; Leishmania donovani): 280 nM
